Experimental data taken from US6268395A, “Phorbol derivatives having antivirus activity” (Lead Chemical Co., Ltd., priority 1999, dated 2001).
“And” between values parts separate entries of the source, which are not always exact repeats. Equal entries are not always repeated. “Also recorded” adds a separate entry of the source. Where two headings read alike, the source gives them in different places.

Legend:
HIV-1 = experiment: Inhibition of HIV-1-induced cytopathic effect (CPE) in MT-4 cells; assay type: cell-based, HIV-1 (LAV-1) in human MT-4 cells; details: for IC100: Human immunodeficiency virus 1, MT4, 120 h; for IC100 / r = CC0/IC100 / Anti-HIV-1 IC100 (complete prevention of HIV-1-induced CPE) / CPE inhibitory effect (in words): MT-4 cells; for r = CC0/IC100: 7200 min; for CPE inhibitory effect (in words): HIV-1; for anti-HIV-1 activity: at concentrations up to 500 μg/mL
Description: (§1) In the experiments, MT-4 cells were used. The cells were incubated at 37° C. under 5% CO2 in RPMI-1640 medium (FCS, Flow laboratories, North Ryde, Australia) supplemented with 100 μg/mL of streptomycin (Meiji Seika, Tokyo, Japan), and 100 U/mL of penicillin G (Banyu Pharmaceutical, Tokyo, Japan).
HIV-1 was obtained from culture supernatant of MOLT-4 cells that had been persistently infected with LAV-1.
j) Assay of cytopathic effect(CPE) of HIV-1 in MT-4 cells
(§2) The inhibitory effect of test compounds on HIV-1-induced cytopathogenicity was measured by the method of Harada, Koyanagi & Yamamoto (1985). MT-4 cells were infected for 1 hour with HIV-1 (at TCID50 of 0.001/well) and non-adsorbed virus was removed by washing. Then, the cells were resuspended in RPMI-1640 medium at a concentration of 1.5×10^5 cells/mL. A 200 μL/well of the cell suspension was cultured for 5 days in days in a 96-well culture plate containing various concentrations (12 doses, maximum 1,000 μg/mL and minimum […]) of the test compounds. Control assays were performed in the absence of test compounds with HIV-1-infected and uninfected cultures. On day 5, the IC100 of the test compound required for completely preventing HIV-1-induced CPE(IC) was determined through an optical microscope and the cell growth was examined to give the CC0 that reduces the viability of MT-4 cells.
A variety of phorbol esters and related compounds were tested for their ability to inhibit the replication and infectivity of HIV-1 in MT-4 cells, a human CD4-positive cell line continually infected with HTLV-1, and the results are presented in Table 3.

[1] = Cell growth / viability of MT-4 cells (cytotoxicity); assay type: cell-based; details: human, day 5, read-out: CC0 (concentration that reduces viability of MT-4 cells; minimum cytotoxic concentration)
Description: as §1, §2

protein kinase C (PKC) = assay type: biochemical, mouse; details: for % Activity of PKC: relative to TPA positive control; for activation of PKC (in words): concentration not given; for PKC activation, positive control: TPA, lipid and calcium chloride present
Description: After addition of 0.55 nM [γ-^32 P] ATP (50×10^3 cpm/nmol), the reaction mixture was mixed and allowed to be kept at 37° C. for 30 minutes. Then the reactions were terminated by the addition of 10 μl of ice-cold stop reagent. Aliquots of 35 μL were transferred to the center of peptide binding discs. After 10 minutes, the discs were washed two times with 75 mM orthophosphoric acid. The activity of ^32 P-labeled samples was counted in 10/mL of a scintillation fluid for 1 minute. […] Blank (in the absence of PKC) and control (in the absence of TPA or tested samples) were also carried out. One unit of PKC was defined as that amount of enzyme, which incorporated 1 nmol of phosphate from ATP into its substrate, peptide, per minute under the assay conditions, described above.

[2] = 5 days, NE: Not effective, read-out: Anti-HIV-1 IC100 (complete prevention of HIV-1-induced CPE)
[3] = 10 ng/mL (standard concentration)
[4] = read-out: IC100 (complete inhibition of CPE)

| SMILES | IC100 (HIV-1; [2]) [µg/mL] | r = CC0/IC100 (HIV-1) | MCC at 120 h [1] [µg/mL] | PKC activation (in words) (protein kinase C (PKC); [3]) | % Activity of PKC (protein kinase C (PKC); 10 ng/mL) | Anti-HIV-1 IC100 (complete prevention of HIV-1-induced CPE) (HIV-1; 5 days, NE: Not effective) [µg/mL] | % Activity of PKC (protein kinase C (PKC); 2.7 μg/mL) | CPE inhibitory effect (in words) (HIV-1) | activation of PKC (in words) (protein kinase C (PKC)) | PKC activation (in words) (protein kinase C (PKC); 10 ng to 2.7 μg/mL) | IC100 (HIV-1; [4]) [µg/mL] | PKC activation (in words) (protein kinase C (PKC); 100 ng/mL) | PKC activation (in words) (protein kinase C (PKC); 10 to 100 ng/mL) | PKC activation, positive control (protein kinase C (PKC)) [%] | PKC activation, positive control (protein kinase C (PKC); represents 100%) [nmol/mg/min] | anti-HIV-1 activity (HIV-1) | PKC activation (in words) (protein kinase C (PKC); high concentrations) |
| --- | --- | --- | --- | --- | --- | --- | --- | --- | --- | --- | --- | --- | --- | --- | --- | --- | --- |
| CCCCC/C=C\C/C=C\CCCCCCCC(=O)OCC1=C[C@H]2[C@@H]3C(C)(C)[C@]3(OC(C)=O)[C@H](O)[C@@H](C)[C@]2(O)[C@@H]2C=C(C)C(=O)[C@@]2(O)C1 [Compound 1, 13-O-Acetylphorbol-20-(9Z,12Z-octadecadienoate)] | 15.6 | 4.01 | 62.5 | did not activate PKC | 0% |  |  |  |  |  |  |  |  |  |  |  |  |
| C/C=C(\C)C(=O)O[C@@]12[C@H](O)[C@@H](C)[C@@]3(O)[C@@H](C=C(COC(=O)CCCCCCC/C=C\C/C=C\CCCCC)C[C@]4(O)C(=O)C(C)=C[C@@H]34)[C@@H]1C2(C)C [Compound 2, 13-O-Tigloylphorobol-20-(9Z,12Z-octadecadienoate)] | 7.81 | 8.00 | 62.5 |  | 14% | 7.8 | 32% |  |  |  |  |  |  |  |  |  |  |
| C/C=C(\C)C(=O)O[C@@]12[C@H](OC(C)=O)[C@@H](C)[C@@]3(O)[C@@H](C=C(CO)C[C@]4(O)C(=O)C(C)=C[C@@H]34)[C@@H]1C2(C)C [Compound 3, 12-O-Acetylphorbol-13-tigliate] | 125 | 4.00 | 500 |  | 16% |  | 30% | weak inhibitory effects against CPE | weak activation of PKC |  |  |  |  |  |  |  |  |
| CCCCCCCCCC(=O)O[C@@H]1[C@@H](C)[C@@]2(O)[C@@H](C=C(CO)C[C@]3(O)C(=O)C(C)=C[C@@H]23)[C@@H]2C(C)(C)[C@]12OC(=O)C(C)CC (stereo partly shown) [Compound 4, 12-O-Decanoylphorbol-13-(2-methylbutyrate)] | 7.81 | 4.01 | 31.3 |  | 0% | 7.8 | 0% |  | did not show any activation of PKC | no activation |  |  |  |  |  |  |  |
| C/C=C(\C)C(=O)O[C@@H]1[C@@H](C)[C@@]2(O)[C@@H](C=C(CO)C[C@]3(O)C(=O)C(C)=C[C@@H]23)[C@@H]2C(C)(C)[C@]12OC(=O)C(C)CC (stereo partly shown) [Compound 5, 12-O-Tigioylphorbol-13-(2-methylbutyrate)] | 31.3 | 2.00 | 62.5 |  | 10% |  | 40% | weak inhibitory effects against CPE | weak activation of PKC |  |  |  |  |  |  |  |  |
| CCCCCCCCCC(=O)O[C@@]12[C@H](OC(C)=O)[C@@H](C)[C@@]3(O)[C@@H](C=C(CO)C[C@]4(O)C(=O)C(C)=C[C@@H]34)[C@@H]1C2(C)C [Compound 6, 12-O-Acetylphorbol-13-decanoate] | 0.0076 | 8220 | 62.5 |  | 0% |  | 17% |  |  |  | 0.0076 | No activation of PKC was observed | no activation; also recorded: did not activate PKC |  |  |  |  |
| CCCCCCCCCCCC(=O)O[C@@]12[C@H](OC(=O)C(C)CC)[C@@H](C)[C@@]3(O)[C@@H](C=C(CO)C[C@]4(O)C(=O)C(C)=C[C@@H]34)[C@@H]1C2(C)C (stereo partly shown) [Compound 7, 12-O-(2-Methylbutyroyl)phorbol-13-dodecanoate] | 15.6 | 4.01 | 62.5 |  | 16% |  | 30% |  |  |  |  |  |  |  |  |  |  |
| CCCCCCCCCCCCCC(=O)O[C@@H]1[C@@H](C)[C@@]2(O)[C@@H](C=C(CO)C[C@]3(O)C(=O)C(C)=C[C@@H]23)[C@@H]2C(C)(C)[C@]12OC(C)=O [Compound 8, reference compound] | 0.00048 | 65200 | 31.3 |  | 96% and ~100% |  | 98% and ~100% | equipotent |  |  | 0.00048 |  |  | 100 | 8400 |  |  |
| CC1=C[C@H]2[C@@]3(O)[C@H](C)[C@@H](O)[C@]4(O)[C@H]([C@@H]3C=C(CO)C[C@]2(O)C1=O)C4(C)C [Compound 9, Phorbol] |  |  | 1000 |  | 8% |  | 39% | did not show CPE inhibitory effect; also recorded: showed no effect | weak activators of PKC |  |  |  |  |  |  | did not show anti-HIV-1 activity |  |
| CC(=O)O[C@@]12[C@H](O)[C@@H](C)[C@@]3(O)[C@@H](C=C(CO)C[C@]4(O)C(=O)C(C)=C[C@@H]34)[C@@H]1C2(C)C [Compound 10, 13-O-Acetylphorbol] | 125 | > 8.00 | > 1000 | did not activate PKC | 0% |  | 14% |  |  |  |  |  |  |  |  |  |  |
| CC(=O)OCC1=C[C@H]2[C@@H]3C(C)(C)[C@]3(OC(C)=O)[C@H](OC(C)=O)[C@@H](C)[C@]2(O)[C@@H]2C=C(C)C(=O)[C@@]2(O)C1 [Compound 11, Phorbol-12,13,20-triacetate] | 62.5 | 2.00 | 125 | did not activate PKC | 0% |  | 15% |  |  |  |  |  |  |  |  |  |  |
| CC1=C[C@H]2[C@@]3(O)[C@H](C)[C@@H](OC(=O)c4ccccc4)[C@]4(OC(=O)c5ccccc5)[C@H]([C@@H]3C=C(COC(=O)c3ccccc3)C[C@]2(O)C1=O)C4(C)C [Compound 12, Phorbol-12,13,20-tribenzoate] |  |  | 31.3 |  |  |  | 100% | showed no effect | enhanced the activation of PKC |  |  |  |  |  |  | did not show anti-HIV-1 activity |  |
| CC(=O)OCC1=C[C@H]2[C@@H]3C(C)(C)[C@]3(OC(C)=O)[C@H](OC(C)=O)[C@@H](C)[C@]2(O)[C@@H]2C=C(C)C(=O)[C@]2(OC(C)=O)C1 [Compound 23, 4α-Phorbol-4,12,13,20-tetraacetate] |  |  |  | did not activate PKC | 0% |  |  | showed no effect |  |  |  |  |  |  |  |  | enhanced activation of PKC |
